This is an account of results in ChEMBL document CHEMBL4251634, “Synthesis and antimicrobial activity of pyrimidinyl 1,3,4-oxadiazoles, 1,3,4-thiadiazoles and 1,2,4-triazoles” (2018).

Calls of active or inactive are those of the source. The calls are words filed in the database; no cut-off is given here.

Holding throughout (assay type): functional
Test [1] has as its system Klebsiella pneumoniae. The test can be described thus: Antibacterial activity against Klebsiella pneumoniae assessed as diameter of inhibition zone at 25 ug/well after 24 hrs by agar well diffusion method. Conditions: read-out: DIZ. For orientation: A growth-free zone around the sample is the usual read-out of agar diffusion tests.
For test [2], the system named is Pseudomonas aeruginosa. Briefly: Antibacterial activity against Pseudomonas aeruginosa assessed as diameter of inhibition zone at 50 ug/well after 24 hrs by agar well diffusion method. The conditions noted are these: read-out: DIZ.
The test system of test [3] is Klebsiella pneumoniae. Briefly: Antibacterial activity against Klebsiella pneumoniae assessed as diameter of inhibition zone at 100 ug/well after 24 hrs by agar well diffusion method. The conditions noted are these: read-out: DIZ.
The subject of test [4] is Bacillus subtilis. Briefly: Antibacterial activity against Bacillus subtilis assessed as diameter of inhibition zone at 25 ug/well after 24 hrs by agar well diffusion method. The conditions noted are these: read-out: DIZ.
Test [5] has as its system Staphylococcus aureus. The test can be described thus: Antibacterial activity against Staphylococcus aureus assessed as diameter of inhibition zone at 12.5 ug/well after 24 hrs by agar well diffusion method. Conditions: for zone of inhibition at 12.5 µg/disc: read-out: DIZ.
The test system of test [6] is Staphylococcus aureus. The test can be described thus: Antibacterial activity against Staphylococcus aureus assessed as diameter of inhibition zone at 50 ug/well after 24 hrs by agar well diffusion method. Conditions: for zone of inhibition at 50 µg/disc: read-out: DIZ.
In test [7] the test system is Klebsiella pneumoniae. The test can be described thus: Antibacterial activity against Klebsiella pneumoniae after 24 hrs by turbidity-based broth dilution assay. Background: In broth dilution the organism is exposed to a series of concentrations in liquid medium.
The test system of test [8] is Bacillus subtilis. The test can be described thus: Antibacterial activity against Bacillus subtilis assessed as diameter of inhibition zone at 50 ug/well after 24 hrs by agar well diffusion method. The conditions noted are these: read-out: DIZ.
In test [9] the test system is Klebsiella pneumoniae. Briefly: Antibacterial activity against Klebsiella pneumoniae assessed as diameter of inhibition zone at 50 ug/well after 24 hrs by agar well diffusion method. The conditions noted are these: read-out: DIZ.
The subject of test [10] is Bacillus subtilis. The test can be described thus: Antibacterial activity against Bacillus subtilis assessed as diameter of inhibition zone at 12.5 ug/well after 24 hrs by agar well diffusion method. Conditions: read-out: DIZ.
The subject of test [11] is Bacillus subtilis. The test can be described thus: Antibacterial activity against Bacillus subtilis assessed as diameter of inhibition zone at 100 ug/well after 24 hrs by agar well diffusion method. Conditions: read-out: DIZ.
Test [12] deals with Pseudomonas aeruginosa. The test can be described thus: Antibacterial activity against Pseudomonas aeruginosa assessed as diameter of inhibition zone at 100 ug/well after 24 hrs by agar well diffusion method. Conditions: read-out: DIZ.
Test [13] relates to Pseudomonas aeruginosa. The test can be described thus: Antibacterial activity against Pseudomonas aeruginosa assessed as diameter of inhibition zone at 25 ug/well after 24 hrs by agar well diffusion method. Conditions: read-out: DIZ.
Test [14] has as its system Klebsiella pneumoniae. Briefly: Antibacterial activity against Klebsiella pneumoniae assessed as diameter of inhibition zone at 12.5 ug/well after 24 hrs by agar well diffusion method. The conditions noted are these: read-out: DIZ.
Test [15] concerns Staphylococcus aureus. Briefly: Antibacterial activity against Staphylococcus aureus after 24 hrs by turbidity-based broth dilution assay.
Test [16] deals with Staphylococcus aureus. Briefly: Antibacterial activity against Staphylococcus aureus assessed as diameter of inhibition zone at 25 ug/well after 24 hrs by agar well diffusion method. The conditions noted are these: for zone of inhibition at 25 µg/disc: read-out: DIZ.
For test [17], the system named is Pseudomonas aeruginosa. Briefly: Antibacterial activity against Pseudomonas aeruginosa assessed as diameter of inhibition zone at 12.5 ug/well after 24 hrs by agar well diffusion method. The conditions noted are these: read-out: DIZ.
In test [18] the test system is Staphylococcus aureus. Briefly: Antibacterial activity against Staphylococcus aureus assessed as diameter of inhibition zone at 100 ug/well after 24 hrs by agar well diffusion method. The conditions noted are these: read-out: DIZ.
Test [19] relates to Pseudomonas aeruginosa. The test can be described thus: Antibacterial activity against Pseudomonas aeruginosa after 24 hrs by turbidity-based broth dilution assay.
In test [20] the test system is Penicillium chrysogenum. The test can be described thus: Antifungal activity against Penicillium chrysogenum assessed as diameter of inhibition zone at 100 ug/well after 48 hrs by agar well diffusion method.
Test [21] deals with Aspergillus niger. Briefly: Antifungal activity against Aspergillus niger assessed as diameter of inhibition zone at 12.5 ug/well after 48 hrs by agar well diffusion method. The conditions noted are these: read-out: DIZ.
For test [22], the system named is Aspergillus niger. Briefly: Antifungal activity against Aspergillus niger assessed as diameter of inhibition zone at 25 ug/well after 48 hrs by agar well diffusion method. Conditions: read-out: DIZ.
Test [23] deals with Penicillium chrysogenum. Briefly: Antifungal activity against Penicillium chrysogenum assessed as diameter of inhibition zone at 50 ug/well after 48 hrs by agar well diffusion method.
Test [24] deals with Penicillium chrysogenum. Briefly: Antifungal activity against Penicillium chrysogenum assessed as diameter of inhibition zone at 25 ug/well after 48 hrs by agar well diffusion method.
Test [25] has as its system Penicillium chrysogenum. Briefly: Antifungal activity against Penicillium chrysogenum assessed as diameter of inhibition zone at 12.5 ug/well after 48 hrs by agar well diffusion method.
In test [26] the test system is Aspergillus niger. Briefly: Antifungal activity against Aspergillus niger assessed as diameter of inhibition zone at 50 ug/well after 48 hrs by agar well diffusion method. Conditions: read-out: DIZ.
Test [27] relates to Aspergillus niger. Briefly: Antifungal activity against Aspergillus niger assessed as diameter of inhibition zone at 100 ug/well after 48 hrs by agar well diffusion method. Conditions: read-out: DIZ.

As for `O=C(N[C@H](CO)[C@H](O)c1ccc([N+](=O)[O-])cc1)C(Cl)Cl` [CHLORAMPHENICOL], the zone of inhibition at 25 µg/disc in the test on Klebsiella pneumoniae [1] stood at 40 mm; in the test on Bacillus subtilis [4], 34 mm; with Pseudomonas aeruginosa [13] it was 27 mm; with Staphylococcus aureus [16] it was 32 mm. Moreover, the zone of inhibition at 50 µg/disc worked out at 29 mm with Pseudomonas aeruginosa [2], 35 mm in the test with Staphylococcus aureus [6], 36 mm in the test on Bacillus subtilis [8] and 42 mm with Klebsiella pneumoniae [9]. The zone of inhibition at 100 µg/disc in the test on Klebsiella pneumoniae [3] came out at 44 mm; in the test with Bacillus subtilis [11] it was 40 mm; in the test on Pseudomonas aeruginosa [12] it was 32 mm; with Staphylococcus aureus [18], 37 mm. For the same compound, the zone of inhibition at 12.5 µg/disc in the test on Staphylococcus aureus [5] was 30 mm; with Bacillus subtilis [10] it was 32 mm; in the test on Klebsiella pneumoniae [14], 38 mm; with Pseudomonas aeruginosa [17], 25 mm. The MIC with Klebsiella pneumoniae [7] was determined as 12.5 µg; in the test with Staphylococcus aureus [15], 6.25 µg; with Pseudomonas aeruginosa [19] it was 6.25 µg.
Consider `Cc1ccc(-c2nnc(CSc3cc(C)nc(SCc4nnc(-c5ccc(C)cc5)s4)n3)s2)cc1`, for which the zone of inhibition at 25 µg/disc worked out at 16 mm in the test with Klebsiella pneumoniae [1], 10 mm with Bacillus subtilis [4], 11 mm with Aspergillus niger [22] and 12 mm with Pseudomonas aeruginosa [13]. Also, the “diameter of the inhibition zone (DIZ)” value in the test on Penicillium chrysogenum [20], in the test on Staphylococcus aureus [5], in the test on Staphylococcus aureus [6], in the test with Penicillium chrysogenum [23], in the test on Penicillium chrysogenum [24] and with Penicillium chrysogenum [25] was “inactive” each time. In the test with Staphylococcus aureus [16], the “diameter of the inhibition zone (DIZ)” value was “inactive”. Further, the zone of inhibition at 50 µg/disc in the test with Pseudomonas aeruginosa [2] worked out at 15 mm; with Bacillus subtilis [8], 11 mm; in the test with Klebsiella pneumoniae [9] it was 18 mm; in the test with Aspergillus niger [26], 13 mm. Moreover, the zone of inhibition at 100 µg/disc in the test on Klebsiella pneumoniae [3] came to 20 mm; with Bacillus subtilis [11], 13 mm; in the test with Pseudomonas aeruginosa [12], 19 mm; in the test on Staphylococcus aureus [18] it was 8 mm; in the test with Aspergillus niger [27], 15 mm. The zone of inhibition at 12.5 µg/disc stood at 9 mm in the test on Aspergillus niger [21], 8 mm with Bacillus subtilis [10], 14 mm with Klebsiella pneumoniae [14] and 10 mm in the test on Pseudomonas aeruginosa [17].
As to `Cc1cc(SCc2nnc(-c3ccccc3)s2)nc(SCc2nnc(-c3ccccc3)s2)n1`, the zone of inhibition at 25 µg/disc was 21 mm with Klebsiella pneumoniae [1]; 13 mm in the test on Bacillus subtilis [4]; 17 mm in the test on Aspergillus niger [22]; 10 mm in the test with Penicillium chrysogenum [24] (read-out: DIZ); 19 mm in the test with Pseudomonas aeruginosa [13]; 11 mm in the test with Staphylococcus aureus [16]. The zone of inhibition at 100 µg/disc in the test with Penicillium chrysogenum [20] (read-out: DIZ) turned out to be 14 mm; in the test on Klebsiella pneumoniae [3] it was 26 mm; with Bacillus subtilis [11] it was 18 mm; in the test with Pseudomonas aeruginosa [12] it was 24 mm; with Staphylococcus aureus [18], 13 mm; in the test on Aspergillus niger [27], 22 mm. Moreover, the zone of inhibition at 50 µg/disc with Pseudomonas aeruginosa [2] was found to be 20 mm; with Staphylococcus aureus [6], 12 mm; in the test on Penicillium chrysogenum [23] (read-out: DIZ) it was 12 mm; in the test with Bacillus subtilis [8] it was 15 mm; with Klebsiella pneumoniae [9] it was 23 mm; with Aspergillus niger [26] it was 19 mm. The zone of inhibition at 12.5 µg/disc was 15 mm in the test on Aspergillus niger [21]; 10 mm in the test with Staphylococcus aureus [5]; 11 mm in the test with Bacillus subtilis [10]; 9 mm with Penicillium chrysogenum [25] (read-out: DIZ); 20 mm with Klebsiella pneumoniae [14]; 15 mm in the test on Pseudomonas aeruginosa [17].
